Laboratory results published in paper PMC9532703, “A novel small molecule RK-019 inhibits FGFR2-amplification gastric cancer cell proliferation and induces apoptosis in vitro and in vivo” (Frontiers in Pharmacology, 2022).

What was measured:
Assay in all cases: Kinase selectivity panel
Assay type in all cases: biochemical
CDK3/cyclinE(h) = molecular target: T1, CDK3/cyclinE(h) (Homo sapiens, UniProt Q00526); conditions: read-out: Inhibition(%) @ 1 µM RK-019
T1 construct: purchased Eurofins Discovery Services (KinaseProfiler)
Summary of the method: (§1)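 Selectivity profiling used one concentration (1 µM) in an ATP-site competition binding assay over 422 recombinant human kinases; data given as inhibition ratio.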

FGFR2(h) = molecular target: T2, FGFR2(h) (Homo sapiens, UniProt P21802)
T2 construct: purchased Eurofins Discovery Services (KinaseProfiler)
Summary of the method: as §1

CRIK(h) = molecular target: T3, CRIK(h) (Homo sapiens, UniProt O14578); conditions: read-out: Inhibition(%) @ 1 µM RK-019
T3 construct: purchased Eurofins Discovery Services (KinaseProfiler)
Summary of the method: as §1

p70S6K(h) = molecular target: T4, p70S6K(h) (Homo sapiens, UniProt P23443); conditions: read-out: Inhibition(%) @ 1 µM RK-019
T4 construct: purchased Eurofins Discovery Services (KinaseProfiler)
Summary of the method: as §1

EphB1(h) = molecular target: T5, EphB1(h) (Homo sapiens, UniProt P54762); conditions: read-out: Inhibition(%) @ 1 µM RK-019
T5 construct: purchased Eurofins Discovery Services (KinaseProfiler)
Summary of the method: as §1

[1] = molecular target: T6, PI3 Kinase (p110a(E542K)/p85a)(h) (Homo sapiens, UniProt P42336, E542K); conditions: read-out: Inhibition(%) @ 1 µM RK-019
T6 construct: purchased Eurofins Discovery Services (KinaseProfiler)
Summary of the method: as §1

CHK1(h) = molecular target: T7, CHK1(h) (Homo sapiens, UniProt O14757); conditions: read-out: Inhibition(%) @ 1 µM RK-019
T7 construct: purchased Eurofins Discovery Services (KinaseProfiler)
Summary of the method: as §1

IKKβ(h) = molecular target: T8, IKKβ(h) (Homo sapiens, UniProt O14920); conditions: read-out: Inhibition(%) @ 1 µM RK-019
T8 construct: purchased Eurofins Discovery Services (KinaseProfiler)
Summary of the method: as §1

CDK4/cyclinD3(h) = molecular target: T9, CDK4/cyclinD3(h) (Homo sapiens, UniProt P11802); conditions: read-out: Inhibition(%) @ 1 µM RK-019
T9 construct: purchased Eurofins Discovery Services (KinaseProfiler)
Summary of the method: as §1

Ret(V804M)(h) = molecular target: T10, Ret(V804M)(h) (Homo sapiens, UniProt P07949, V804M); conditions: read-out: Inhibition(%) @ 1 µM RK-019
T10 construct: purchased Eurofins Discovery Services (KinaseProfiler)
Summary of the method: as §1

HPK1(h) = molecular target: T11, HPK1(h) (Homo sapiens, UniProt Q92918); conditions: read-out: Inhibition(%) @ 1 µM RK-019
T11 construct: purchased Eurofins Discovery Services (KinaseProfiler)
Summary of the method: as §1

PKCε(h) = molecular target: T12, PKCε(h) (Homo sapiens, UniProt Q02156); conditions: read-out: Inhibition(%) @ 1 µM RK-019
T12 construct: purchased Eurofins Discovery Services (KinaseProfiler)
Summary of the method: as §1

MOK(h) = molecular target: T13, MOK(h) (Homo sapiens, UniProt Q9UQ07); conditions: read-out: Inhibition(%) @ 1 µM RK-019
T13 construct: purchased Eurofins Discovery Services (KinaseProfiler)
Summary of the method: as §1

ErbB2(h) = molecular target: T14, ErbB2(h) (Homo sapiens, UniProt P04626); conditions: read-out: Inhibition(%) @ 1 µM RK-019
T14 construct: purchased Eurofins Discovery Services (KinaseProfiler)
Summary of the method: as §1

ALK1(h) = molecular target: T15, ALK1(h) (Homo sapiens, UniProt P37023); conditions: read-out: Inhibition(%) @ 1 µM RK-019
T15 construct: purchased Eurofins Discovery Services (KinaseProfiler)
Summary of the method: as §1

AMPKα1(h) = molecular target: T16, AMPKα1(h) (Homo sapiens, UniProt Q13131); conditions: read-out: Inhibition(%) @ 1 µM RK-019
T16 construct: purchased Eurofins Discovery Services (KinaseProfiler)
Summary of the method: as §1

EphA2(h) = molecular target: T17, EphA2(h) (Homo sapiens, UniProt P29317); conditions: read-out: Inhibition(%) @ 1 µM RK-019
T17 construct: purchased Eurofins Discovery Services (KinaseProfiler)
Summary of the method: as §1

EphA8(h) = molecular target: T18, EphA8(h) (Homo sapiens, UniProt P29322); conditions: read-out: Inhibition(%) @ 1 µM RK-019
T18 construct: purchased Eurofins Discovery Services (KinaseProfiler)
Summary of the method: as §1

DYRK1A(h) = molecular target: T19, DYRK1A(h) (Homo sapiens, UniProt Q13627); conditions: read-out: Inhibition(%) @ 1 µM RK-019
T19 construct: purchased Eurofins Discovery Services (KinaseProfiler)
Summary of the method: as §1

[2] = molecular target: T20, PI3 Kinase (p110a(E545K)/p85a)(m) (Mus musculus, UniProt P42337, E545K); conditions: read-out: Inhibition(%) @ 1 µM RK-019
T20 construct: purchased Eurofins Discovery Services (KinaseProfiler)

CDKL2(h) = molecular target: T21, CDKL2(h) (Homo sapiens, UniProt Q92772); conditions: read-out: Inhibition(%) @ 1 µM RK-019
T21 construct: purchased Eurofins Discovery Services (KinaseProfiler)
Summary of the method: as §1

GRK5(h) = molecular target: T22, GRK5(h) (Homo sapiens, UniProt P34947); conditions: read-out: Inhibition(%) @ 1 µM RK-019
T22 construct: purchased Eurofins Discovery Services (KinaseProfiler)
Summary of the method: as §1

Pyk2(h) = molecular target: T23, Pyk2(h) (Homo sapiens, UniProt Q14289); conditions: read-out: Inhibition(%) @ 1 µM RK-019
T23 construct: purchased Eurofins Discovery Services (KinaseProfiler)
Summary of the method: as §1

MARK3(h) = molecular target: T24, MARK3(h) (Homo sapiens, UniProt P27448); conditions: read-out: Inhibition(%) @ 1 µM RK-019
T24 construct: purchased Eurofins Discovery Services (KinaseProfiler)
Summary of the method: as §1

VRK1(h) = molecular target: T25, VRK1(h) (Homo sapiens, UniProt Q99986); conditions: read-out: Inhibition(%) @ 1 µM RK-019
T25 construct: purchased Eurofins Discovery Services (KinaseProfiler)
Summary of the method: as §1

PAK4(h) = molecular target: T26, PAK4(h) (Homo sapiens, UniProt O96013); conditions: read-out: Inhibition(%) @ 1 µM RK-019
T26 construct: purchased Eurofins Discovery Services (KinaseProfiler)
Summary of the method: as §1

CDK1/cyclinB(h) = molecular target: T27, CDK1/cyclinB(h) (Homo sapiens, UniProt P06493); conditions: read-out: Inhibition(%) @ 1 µM RK-019
T27 construct: purchased Eurofins Discovery Services (KinaseProfiler)
Summary of the method: as §1

Lck(h) activated = molecular target: T28, Lck(h) activated (Homo sapiens, UniProt P06239); conditions: read-out: Inhibition(%) @ 1 µM RK-019
T28 construct: purchased Eurofins Discovery Services (KinaseProfiler)
Summary of the method: as §1

NUAK2(h) = molecular target: T29, NUAK2(h) (Homo sapiens, UniProt Q9H093); conditions: read-out: Inhibition(%) @ 1 µM RK-019
T29 construct: purchased Eurofins Discovery Services (KinaseProfiler)
Summary of the method: as §1

PKAcβ(h) = molecular target: T30, PKAcβ(h) (Homo sapiens, UniProt P22694); conditions: read-out: Inhibition(%) @ 1 µM RK-019
T30 construct: purchased Eurofins Discovery Services (KinaseProfiler)
Summary of the method: as §1

CHK2(I157T)(h) = molecular target: T31, CHK2(I157T)(h) (Homo sapiens, UniProt O96017, I157T); conditions: read-out: Inhibition(%) @ 1 µM RK-019
T31 construct: purchased Eurofins Discovery Services (KinaseProfiler)
Summary of the method: as §1

CK1γ1(h) = molecular target: T32, CK1γ1(h) (Homo sapiens, UniProt Q9HCP0); conditions: read-out: Inhibition(%) @ 1 µM RK-019
T32 construct: purchased Eurofins Discovery Services (KinaseProfiler)
Summary of the method: as §1

STK32A(h) = molecular target: T33, STK32A(h) (Homo sapiens, UniProt Q8WU08); conditions: read-out: Inhibition(%) @ 1 µM RK-019
T33 construct: purchased Eurofins Discovery Services (KinaseProfiler)
Summary of the method: as §1

PKCβI(h) = molecular target: T34, PKCβI(h) (Homo sapiens, UniProt P05771); conditions: read-out: Inhibition(%) @ 1 µM RK-019
T34 construct: purchased Eurofins Discovery Services (KinaseProfiler)
Summary of the method: as §1

MYLK2(h) = molecular target: T35, MYLK2(h) (Homo sapiens, UniProt Q9H1R3); conditions: read-out: Inhibition(%) @ 1 µM RK-019
T35 construct: purchased Eurofins Discovery Services (KinaseProfiler)
Summary of the method: as §1

Abl(Y253F)(h) = molecular target: T36, Abl(Y253F)(h) (Homo sapiens, UniProt P00519, Y253F); conditions: read-out: Inhibition(%) @ 1 µM RK-019
T36 construct: purchased Eurofins Discovery Services (KinaseProfiler)
Summary of the method: as §1

T2 sequence (P21802 22-821): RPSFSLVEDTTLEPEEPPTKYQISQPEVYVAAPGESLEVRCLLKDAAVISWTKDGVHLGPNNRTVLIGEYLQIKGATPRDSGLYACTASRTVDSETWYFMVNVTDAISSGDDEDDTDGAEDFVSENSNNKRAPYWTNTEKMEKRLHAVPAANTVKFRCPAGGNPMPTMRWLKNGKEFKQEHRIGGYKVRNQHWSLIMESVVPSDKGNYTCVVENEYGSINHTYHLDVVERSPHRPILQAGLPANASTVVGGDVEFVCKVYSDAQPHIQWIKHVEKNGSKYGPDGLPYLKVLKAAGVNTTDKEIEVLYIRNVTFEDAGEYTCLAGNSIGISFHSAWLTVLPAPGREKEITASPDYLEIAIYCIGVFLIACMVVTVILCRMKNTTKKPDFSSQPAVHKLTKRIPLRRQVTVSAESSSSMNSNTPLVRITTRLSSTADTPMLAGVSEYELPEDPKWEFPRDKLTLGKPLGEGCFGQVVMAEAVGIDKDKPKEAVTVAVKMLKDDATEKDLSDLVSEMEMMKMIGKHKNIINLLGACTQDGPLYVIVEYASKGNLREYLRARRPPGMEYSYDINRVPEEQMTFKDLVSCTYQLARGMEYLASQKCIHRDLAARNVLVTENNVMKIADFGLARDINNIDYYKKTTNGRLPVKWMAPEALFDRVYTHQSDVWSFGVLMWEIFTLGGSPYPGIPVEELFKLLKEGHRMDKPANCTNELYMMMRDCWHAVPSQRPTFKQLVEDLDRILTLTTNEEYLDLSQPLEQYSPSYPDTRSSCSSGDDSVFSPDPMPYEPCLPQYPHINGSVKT
T13 sequence (Q9UQ07 whole entry): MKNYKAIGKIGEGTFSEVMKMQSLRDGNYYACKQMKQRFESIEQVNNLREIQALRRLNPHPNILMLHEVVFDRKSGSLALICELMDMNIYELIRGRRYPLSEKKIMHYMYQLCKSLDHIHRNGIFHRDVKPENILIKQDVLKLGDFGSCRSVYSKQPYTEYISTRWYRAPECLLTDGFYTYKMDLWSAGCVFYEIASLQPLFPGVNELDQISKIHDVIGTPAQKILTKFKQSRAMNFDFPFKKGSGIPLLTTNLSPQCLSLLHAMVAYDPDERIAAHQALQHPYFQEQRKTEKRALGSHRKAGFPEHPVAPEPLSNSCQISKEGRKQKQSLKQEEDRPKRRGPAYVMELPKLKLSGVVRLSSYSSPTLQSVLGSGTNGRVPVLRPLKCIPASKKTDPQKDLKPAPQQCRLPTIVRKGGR
T8 sequence (O14920 whole entry): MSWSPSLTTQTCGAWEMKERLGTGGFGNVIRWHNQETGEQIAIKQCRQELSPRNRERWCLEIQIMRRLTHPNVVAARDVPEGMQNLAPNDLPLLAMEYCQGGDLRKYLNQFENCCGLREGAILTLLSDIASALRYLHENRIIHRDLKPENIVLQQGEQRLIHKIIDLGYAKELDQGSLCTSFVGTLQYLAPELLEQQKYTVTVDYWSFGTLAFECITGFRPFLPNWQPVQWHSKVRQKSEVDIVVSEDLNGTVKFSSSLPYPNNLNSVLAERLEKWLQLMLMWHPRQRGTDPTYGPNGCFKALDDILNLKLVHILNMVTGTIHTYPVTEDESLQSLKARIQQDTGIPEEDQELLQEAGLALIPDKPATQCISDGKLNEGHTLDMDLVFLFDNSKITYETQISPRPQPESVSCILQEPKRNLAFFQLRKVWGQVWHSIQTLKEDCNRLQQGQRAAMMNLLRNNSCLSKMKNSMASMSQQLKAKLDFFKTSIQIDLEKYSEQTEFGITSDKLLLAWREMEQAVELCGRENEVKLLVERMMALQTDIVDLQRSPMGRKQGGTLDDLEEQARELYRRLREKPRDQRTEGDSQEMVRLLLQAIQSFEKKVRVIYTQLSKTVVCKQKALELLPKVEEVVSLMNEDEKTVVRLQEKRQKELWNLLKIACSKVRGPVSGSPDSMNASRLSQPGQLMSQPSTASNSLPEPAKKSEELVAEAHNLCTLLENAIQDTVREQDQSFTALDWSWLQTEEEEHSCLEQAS
T5 sequence (P54762 18-984): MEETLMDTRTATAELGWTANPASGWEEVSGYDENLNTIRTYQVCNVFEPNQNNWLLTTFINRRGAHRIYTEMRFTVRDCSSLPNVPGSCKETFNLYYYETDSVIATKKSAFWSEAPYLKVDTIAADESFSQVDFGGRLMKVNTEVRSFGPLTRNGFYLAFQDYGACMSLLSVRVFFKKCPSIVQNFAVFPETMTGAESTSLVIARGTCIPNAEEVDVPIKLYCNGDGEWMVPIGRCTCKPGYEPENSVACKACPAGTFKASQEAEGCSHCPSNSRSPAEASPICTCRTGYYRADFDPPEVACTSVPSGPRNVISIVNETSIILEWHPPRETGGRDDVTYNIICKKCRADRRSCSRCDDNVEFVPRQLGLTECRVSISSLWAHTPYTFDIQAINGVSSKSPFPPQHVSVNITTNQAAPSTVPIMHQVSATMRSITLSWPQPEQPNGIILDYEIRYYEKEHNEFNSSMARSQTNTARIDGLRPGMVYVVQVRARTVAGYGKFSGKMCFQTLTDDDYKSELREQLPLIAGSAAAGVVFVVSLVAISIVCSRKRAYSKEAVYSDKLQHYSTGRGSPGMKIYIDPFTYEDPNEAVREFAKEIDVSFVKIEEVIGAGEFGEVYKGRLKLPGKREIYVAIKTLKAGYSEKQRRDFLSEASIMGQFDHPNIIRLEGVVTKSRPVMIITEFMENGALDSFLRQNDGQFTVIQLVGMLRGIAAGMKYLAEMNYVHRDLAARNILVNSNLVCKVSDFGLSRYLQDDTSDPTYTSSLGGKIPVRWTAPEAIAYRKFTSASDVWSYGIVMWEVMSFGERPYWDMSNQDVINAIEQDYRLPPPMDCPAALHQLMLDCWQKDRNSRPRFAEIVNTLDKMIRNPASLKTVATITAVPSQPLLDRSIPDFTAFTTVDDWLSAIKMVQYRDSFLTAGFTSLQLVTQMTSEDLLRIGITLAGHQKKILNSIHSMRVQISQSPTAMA
T26 sequence (O96013 whole entry): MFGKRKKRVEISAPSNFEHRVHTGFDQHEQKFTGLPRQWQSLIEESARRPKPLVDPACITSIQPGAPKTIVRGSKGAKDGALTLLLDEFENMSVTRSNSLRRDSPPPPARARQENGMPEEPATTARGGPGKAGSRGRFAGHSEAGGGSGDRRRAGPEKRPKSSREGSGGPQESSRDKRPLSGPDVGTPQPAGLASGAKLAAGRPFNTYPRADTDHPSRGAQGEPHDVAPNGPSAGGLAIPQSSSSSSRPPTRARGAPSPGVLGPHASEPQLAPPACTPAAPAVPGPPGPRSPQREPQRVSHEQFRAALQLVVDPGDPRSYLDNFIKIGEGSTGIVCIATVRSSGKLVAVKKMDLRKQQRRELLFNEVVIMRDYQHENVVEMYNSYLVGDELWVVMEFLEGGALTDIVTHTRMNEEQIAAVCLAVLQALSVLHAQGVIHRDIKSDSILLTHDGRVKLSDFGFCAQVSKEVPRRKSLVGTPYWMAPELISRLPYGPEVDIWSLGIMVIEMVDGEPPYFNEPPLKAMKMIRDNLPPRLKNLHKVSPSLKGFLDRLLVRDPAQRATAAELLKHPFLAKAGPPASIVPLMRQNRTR
T31 sequence (O96017 whole entry I157T): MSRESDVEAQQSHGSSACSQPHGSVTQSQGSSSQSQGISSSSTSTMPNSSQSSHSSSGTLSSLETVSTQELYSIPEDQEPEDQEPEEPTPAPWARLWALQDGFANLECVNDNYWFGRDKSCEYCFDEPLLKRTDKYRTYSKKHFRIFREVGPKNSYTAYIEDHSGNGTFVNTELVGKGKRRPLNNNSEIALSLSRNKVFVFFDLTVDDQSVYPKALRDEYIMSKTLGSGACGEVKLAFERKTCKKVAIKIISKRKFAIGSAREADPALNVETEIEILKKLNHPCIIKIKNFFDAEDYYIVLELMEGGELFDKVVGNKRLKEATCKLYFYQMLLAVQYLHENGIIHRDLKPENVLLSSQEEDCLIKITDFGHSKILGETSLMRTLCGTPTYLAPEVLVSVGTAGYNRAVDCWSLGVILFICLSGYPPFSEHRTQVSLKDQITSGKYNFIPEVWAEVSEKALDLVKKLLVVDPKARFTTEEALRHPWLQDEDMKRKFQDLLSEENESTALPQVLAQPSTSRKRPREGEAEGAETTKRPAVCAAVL
T11 sequence (Q92918 whole entry): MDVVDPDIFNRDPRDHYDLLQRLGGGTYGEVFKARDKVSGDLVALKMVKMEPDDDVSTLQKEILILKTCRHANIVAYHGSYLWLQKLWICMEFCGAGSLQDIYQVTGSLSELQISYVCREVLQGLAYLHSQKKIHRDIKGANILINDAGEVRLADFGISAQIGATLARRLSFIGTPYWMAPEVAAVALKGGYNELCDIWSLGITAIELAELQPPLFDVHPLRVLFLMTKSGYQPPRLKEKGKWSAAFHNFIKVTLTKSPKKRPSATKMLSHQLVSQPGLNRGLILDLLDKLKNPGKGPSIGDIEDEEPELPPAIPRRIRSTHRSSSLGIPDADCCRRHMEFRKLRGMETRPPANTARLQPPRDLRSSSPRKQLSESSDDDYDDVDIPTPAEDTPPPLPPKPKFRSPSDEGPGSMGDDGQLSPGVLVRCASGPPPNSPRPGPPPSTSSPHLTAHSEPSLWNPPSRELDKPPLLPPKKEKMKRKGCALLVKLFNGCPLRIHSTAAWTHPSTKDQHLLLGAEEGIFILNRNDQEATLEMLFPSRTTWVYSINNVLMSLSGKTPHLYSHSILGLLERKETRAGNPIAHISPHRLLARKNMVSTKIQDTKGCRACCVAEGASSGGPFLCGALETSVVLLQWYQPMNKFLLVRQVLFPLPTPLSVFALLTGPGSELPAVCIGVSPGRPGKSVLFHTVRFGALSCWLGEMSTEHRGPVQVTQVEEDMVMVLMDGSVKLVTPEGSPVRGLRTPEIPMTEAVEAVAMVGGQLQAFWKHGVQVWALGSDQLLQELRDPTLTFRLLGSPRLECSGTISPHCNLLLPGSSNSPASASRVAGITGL

COc1cc(OC)cc(N(CCN[C@H](C)CO)c2ccc3ncc(-c4cnn(C)c4)c(=O)n3c2)c1 [RK-019, (R)-7-((3,5-dimethoxyphenyl) (2-((1-hydroxypropan-2-yl)amino)ethyl)amino)-3-(1-methyl-1H-pyrazol-4-yl)-4H-pyrido [1,2-a]pyrimidin-4-one]
activity at 1 µM (CDK3/cyclinE(h)): 90% | activity at 1 µM (FGFR2(h); FGFR2(h), read-out: Inhibition(%) @ 1 µM RK-019): 1% | inhibition at 1 µM (FGFR2(h); FGFR2, 1 µM, read-out: inhibition (hit in panel)): > 90% | activity at 1 µM (CRIK(h)): 117% | activity at 1 µM (p70S6K(h)): 119% | activity at 1 µM (EphB1(h)): 58% | activity at 1 µM [1]: 98% | activity at 1 µM (CHK1(h)): 90% | activity at 1 µM (IKKβ(h)): 90% | activity at 1 µM (CDK4/cyclinD3(h)): 101% | activity at 1 µM (Ret(V804M)(h)): 56% | activity at 1 µM (HPK1(h)): 95% | activity at 1 µM (PKCε(h)): 88% | activity at 1 µM (MOK(h)): 97% | activity at 1 µM (ErbB2(h)): 94% | activity at 1 µM (ALK1(h)): 98% | activity at 1 µM (AMPKα1(h)): 107% | activity at 1 µM (EphA2(h)): 61% | activity at 1 µM (EphA8(h)): 59% | activity at 1 µM (DYRK1A(h)): 101% | activity at 1 µM [2]: 102% | activity at 1 µM (CDKL2(h)): 110% | activity at 1 µM (GRK5(h)): 135% | activity at 1 µM (Pyk2(h)): 112% | activity at 1 µM (MARK3(h)): 80% | activity at 1 µM (VRK1(h)): 98% | activity at 1 µM (PAK4(h)): 82% | activity at 1 µM (CDK1/cyclinB(h)): 99% | activity at 1 µM (Lck(h) activated): 36% | activity at 1 µM (NUAK2(h)): 90% | activity at 1 µM (PKAcβ(h)): 98% | activity at 1 µM (CHK2(I157T)(h)): 100% | activity at 1 µM (CK1γ1(h)): 92% | activity at 1 µM (STK32A(h)): 86% | activity at 1 µM (PKCβI(h)): 102% | activity at 1 µM (MYLK2(h)): 88% | activity at 1 µM (Abl(Y253F)(h)): 54%
